We go through 1 compound from patent US7973219B2, “Method for producing transgenic plants resistant to weed control compounds which disrupt the porphyrin pathways of plants” (Sumitomo Chemical Company, Limited, priority 1998, dated 2011).

Structures are written as SMILES.

In test [1] the test system is E. coli BT3/pACYCSP+pYAGF strain. The test can be described thus: Growth of E. coli BT3/pACYCSP+pYAGF with herbicidal compound. It counts as cell-based, Escherichia coli. The note with it: 1 ppm, 18 hours culture, Table 15. From the text: According to the description of Gibson, L. C. D. et al., Proc. Natl. Acad. Sci. USA, 92; p 1941 (1995), the DNA fragment containing bchH gene prepared in Example 1 was digested with the restriction enzymes NdeI and BglII. The resultant DNA fragment was inserted between NdeI restriction site and BamHI restriction site of expression vector pET11a (manufactured by Stratagene) to obtain plasmid pETBCH (FIG. 1). This plasmid pETBCH was introduced into E. coli BL21(DE3) strain competent cells (manufactured by Stratagene) according to the manual attached to the competent cells to obtain E. coli BL21(DE3)/pETBCH strain. The strain was inoculated into 1.5 ml LB liquid culture medium (1% tryptone, 0.5% yeast extract, 0.5% NaCl) containing 100 μg/ml ampicillin in a tube (14×10 mm), and the tube was covered with aluminum foil (hereinafter referred to as dark conditions), cultured with shaking at 37° C. under light of fluorescent lamp (about 8000 lux). When the absorbance at 600 nm of the liquid culture medium became about 0.6, isopropyl β-D-thiogalactopyranoside (IPTG) was added to the liquid culture medium so that the final concentration was 0.4 mM, and the culture was continued for about additional 20 hours. […]

Test [2] deals with E. coli BT3/pACYCSP+pTVCSF strain. The test can be described thus: Growth of E. coli BT3/pACYCSP+pTVCSF (variant cucumber ferrochelatase) with herbicidal compound. The note with it: 18 hours culture, Table 13. It counts as cell-based, Escherichia coli. From the text: According to the description of Gibson, L. C. D. et al., Proc. Natl. Acad. Sci. USA, 92; p 1941 (1995), the DNA fragment containing bchH gene prepared in Example 1 was digested with the restriction enzymes NdeI and BglII. The resultant DNA fragment was inserted between NdeI restriction site and BamHI restriction site of expression vector pET11a (manufactured by Stratagene) to obtain plasmid pETBCH (FIG. 1). This plasmid pETBCH was introduced into E. coli BL21(DE3) strain competent cells (manufactured by Stratagene) according to the manual attached to the competent cells to obtain E. coli BL21(DE3)/pETBCH strain. The strain was inoculated into 1.5 ml LB liquid culture medium (1% tryptone, 0.5% yeast extract, 0.5% NaCl) containing 100 μg/ml ampicillin in a tube (14×10 mm), and the tube was covered with aluminum foil (hereinafter referred to as dark conditions), cultured with shaking at 37° C. under light of fluorescent lamp (about 8000 lux). When the absorbance at 600 nm of the liquid culture medium became about 0.6, isopropyl β-D-thiogalactopyranoside (IPTG) was added to the liquid culture medium so that the final concentration was 0.4 mM, and the culture was continued for about additional 20 hours. […] In contrast to this, when E. coli BL21(DE3)/pETBCH strain was cultured according to the same manner (with IPTG) except that the tube was not covered with aluminum foil (hereinafter referred to as light conditions), E. coli grew and turned red as above.
PCR was carried out by using cucumber ferrochelatase cDNA clone isolated by the method described in Miyamoto, K. et al. Plant Physiol., 105; p 769 (1994) as a template, an oligonucleotide composed of the nucleotide sequence of SEQ ID NO: 21 and an oligonucleotide composed of the nucleotide sequence of SEQ ID NO: 22 as primers to amplify the DNA fragment encoding cucumber ferrochelatase whose signal sequence had been deleted (hereinafter referred to as the variant cucumber ferrochelatase). […]
These E. coli strains were inoculated into YPT medium containing 10 or 1 ppm of the PPO inhibitory-type herbicidal compound represented by Structure 8, 100 μg/ml ampicillin, 15 μg/ml chloramphenicol, 10 μg/ml kanamycin, 10 μg/ml hemin and 50 μg/ml aminolevulinic acid, cultured under dark conditions or light conditions according to the same manner as in Example 2. Then, 18 hours after initiation of culture, the absorbance of liquid culture medium was measured at 600 nm. By taking the absorbance of the medium without the herbicidal compound as 1, the relative value of the absorbance of the medium containing the herbicidal compound was calculated.

With `C#CCOc1cc(N2C(=O)C3=C(CCCC3)C2=O)c(F)cc1Cl` [Structure 8], the Relative absorbance in test [1] (in the dark) is recorded as 0.96; in test [1] (in the light) it was 0.62; in test [2] (in the dark, 1 ppm), 0.92; in test [2] (in the dark, 10 ppm) it was 0.89; in test [2] (in the light, 1 ppm) it was 0.78; in test [2] (in the light, 10 ppm), 0.73.
